System: companion animals (cats and dogs)
Assay: Companion animal mobility, further addition of glucosamine
Format: in vivo
Design: dose or concentration left out as unconfirmed
Conditions: glucosamine added to OmegaMaine omega-3 oil; data not shown
Protocol: Cats (n=5) were given 2.5 mL (½ teaspoon) of OmegaMaine liquid omega-3 oil by adding directly to their food. Dogs (n=5) were given 5 mL (1 teaspoon) of OmegaMaine omega-3 oil by adding directly to their food. For reference, 5 mL of OmegaMaine omega-3 oil contains, minimally, 800 mg of EPA, and, minimally, 750 mg of DHA. Animals were scored on a scale of 1 to 10, where 10 was behavior like a kitten or a puppy and 1 was severe immobility. All animals in the test group average 8 years of age. Animals were evaluated prior to treatment and 2 weeks after daily treatment with OmegaMaine omega-3 oil (Table 4).

N[C@H]1C(O)O[C@H](CO)[C@@H](O)[C@@H]1O (stereo partly shown) [glucosamine]
therapeutic benefit on mobility: additional therapeutic benefit
